Patent US20190062322A1, “PUMA INHIBITOR, METHOD FOR PREPARATION THEREOF, AND USE THEREOF” (FOURTH MILITARY MEDICAL UNIVERSITY, priority 2016, published 2019)

Target: Mcl-1 (Homo sapiens, UniProt Q07820)
Assay: FPA competition assay, inhibition of Mcl-1 / FITC-Mcl-BH3 binding
Conditions: 250 nM Mcl-1 and 250 nM FITC-Mcl-BH3 probe, pH 7.5, cells printed in nM
Excerpt: Experiment 1 the Inhibition Assay of Compounds 1˜12 to Mcl-1
FPA competition assays were adopted to evaluate the binding affinity of compounds to Mcl-1. The FITC labelled BH3 peptide of Mcl-1 (FITC-Mcl-BH3, FITC-AHx-KALETLRRVGD GVQRNHITAF-NH2) was synthesized and used as fluorescence probe in the FPA competition assays. The binding of FITC-Mcl-BH3 and Mcl-1 can enhance the polarized light. While the binding of compounds and Mcl-1 would reduce the polarization, IC50 is the compound concentration that displaces 50% of the fluorescent ligand from the ligand-receptor complex.
All assays were performed in the assay buffer (pH 7.5) composed of 20 mM Tris, 50 mM NaCl, 3 mM DTT and 2% DMSO. The FPA competition assays were carried out in the 96-well, black, flat-bottom plates (Nunc). To check the interference effects of candidate compounds on the interaction between Mcl-1 and FITC-Mcl-BH3, solutions containing 250 nM Mcl-1 and 250 nM fluorescence probes were titrated with […] selected compounds (0-128 μM, 2-times gradient) dissolved in the assay buffer. The emission fluorescence changes were recorded from 480 to 540 nm by TECAN Infinite M1000 Microplate Spectrophotometer with excitation wavelength being 450 nm. The IC50 were calculated.

Chain of Mcl-1 (Q07820 whole entry, species assumed): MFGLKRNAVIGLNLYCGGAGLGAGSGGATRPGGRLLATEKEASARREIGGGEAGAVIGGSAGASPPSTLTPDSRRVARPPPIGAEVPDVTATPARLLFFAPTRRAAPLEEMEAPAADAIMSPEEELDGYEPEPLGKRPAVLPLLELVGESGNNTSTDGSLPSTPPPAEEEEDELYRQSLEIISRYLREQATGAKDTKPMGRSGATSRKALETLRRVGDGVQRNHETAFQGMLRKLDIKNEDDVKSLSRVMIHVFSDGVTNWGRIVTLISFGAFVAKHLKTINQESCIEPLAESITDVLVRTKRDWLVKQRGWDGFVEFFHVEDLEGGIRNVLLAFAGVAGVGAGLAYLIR

Structure (SMILES) | IC50 [nM]
O=C1N=C(N2CCC(CCO)CC2)SC1=Cc1ccccc1 [Compound 8] | 589
COc1ccc(/C=C2\SC(N3CCN(CCO)CC3)=NC2=O)cc1 [Compound 4] | 161
O=C1N=C(N2CCN(CCO)CC2)S/C1=C\c1ccc(Cl)cc1 [Compound 5] | 89.7
O=C1N=C(N2CCC(CCO)CC2)SC1=Cc1ccc(Cl)cc1 [Compound 12] | 369
Cc1ccc(C=C2SC(N3CCN(CCO)CC3)=NC2=O)cc1 [Compound 3] | 401
COc1ccc(C=C2SC(N3CCC(CCO)CC3)=NC2=O)cc1 [Compound 11] | 52.1
